The source of these data is US4178442A, “Novel cinnamoyles piperazines and homopiperazines, the method of preparing them and their application in therapeutics” (Delalande S. A., priority 1977, dated 1979).

Each structure is given as a SMILES string. Where two headings read alike, the source gives them in different places.

A word on the LD50: it is the dose expected to kill half of the subjects tested. By mortality is commonly meant the share of the test organisms that died.

Series [1] has as its system anaesthetized dog. Description: Activity on the cerebral circulation, anaesthetized dog. Format: in vivo. The note with it: for change in vivo at 2.5 mg/kg / change in vivo at 2 mg/kg / change in vivo at 5 mg/kg: Canis lupus familiaris, iv; for Increase of the extraction of cerebral oxygen: (A-V)/A. The method, then: The activity on the cerebral circulation was tested on an anaesthetized dog (sodium pentobarbital 30 mg/kg/i.v.). The vertebral artery flow was measured by means of an electromagnetic perivascular or ultrasonic Doppler effect probe. The intracerebral vascular resistance was estimated by the back pressure of the internal carotid artery. […] The increase in the extraction of cerebral oxygen was estimated by the following equation:(A-V)/A in which: A represents the volume of oxygen in the arterial blood (% volume) measured by hemoreflectometry (KIPP and ZONEN's apparatus) and quantity determination of the haemoglobin (DRABKIN's method). V represents the volume of oxygen in the cerebral venous blood (internal maxillary vein). […] It should be noted that the compounds tested were injected intravenously (rapid injection).

Series [2] relates to anaesthetized dog. The experiment in a line: Activity on the peripheral circulation, anaesthetized dog. Format: in vivo. The method, then:
The activity on the peripheral circulation was studied on an anaesthetized dog (sodium pentobarbital 30 mg/kg/i.v.). The femoral artery flow was measured by means of an electromagnetic or ultrasonic perivascular Doppler effect probe.

Series [3] relates to anaesthetized dog. Description: Antiangorous activity on anaesthetized dog: consumption of oxygen in the left ventricule and cardiac effort (KATZ's index). The series is classed as in vivo. The note with it: for inhibition in vivo at 2.5 mg/kg / inhibition in vivo at 2.3 mg/kg: Canis lupus familiaris, iv. Put shortly: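 Katz index taken as mean arterial pressure multiplied by ECG (D2) heart rate, and myocardial O2 use as coronary sinus flow via modified Morawitz cannula times coronary arteriovenous O2 difference. Animals: pentobarbital-anaesthetized dogs (30 mg/kg i.v.), test compounds infused slowly intravenously.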

Series [4] is described as follows: in vivo. The following applies: iv. An excerpt:
*LD50 or percentage of mortality which is given between brackets

The mark [5] stands for this setting: dog, 2,5 mg/kg i.v. rapid injection.
Where [6] appears, read: dog, 2,5 mg/kg i.v. slow perfusion.
The mark [7] stands for this setting: Canis lupus familiaris, iv, dog, 5 mg/kg i.v. slow perfusion, read-out: Average arterial pressure.
[8] abbreviates: Canis lupus familiaris, iv, dog, 5 mg/kg i.v. slow perfusion, read-out: Femoral artery flow.
Setting [9] is: dog, 5 mg/kg i.v. slow perfusion.
[10] abbreviates: 2.5 mg/kg i.v. slow perfusion, read-out: Diminution in consumption of O2.
[11] abbreviates: 2.5 mg/kg i.v. slow perfusion, read-out: Diminution in the cardiac effort (IK).
The mark [12] stands for this setting: dog, 2 mg/kg i.v. rapid injection.
Setting [13] is: dog, 10 mg/kg i.v. slow perfusion.
Where [14] appears, read: dog, 5 mg/kg i.v. rapid injection, read-out: Internal carotid artery back pressure.
[15] abbreviates: dog, 5 mg/kg i.v. rapid injection, read-out: Vertebral artery flow.
Setting [16] is: dog, 5 mg/kg i.v. rapid injection.
The mark [17] stands for this setting: dog, 5 mg/kg i.v. rapid injection, read-out: Systemic average arterial pressure.

As for `CCN(CC)CCOC(=O)C(Cc1cccc2ccccc12)CC1CCCO1` (stereo not shown) [Naphtidrofuryl, naphtidrofuryl, reference compound], the change in vivo at 2.5 mg/kg in series [1] (dog, 2,5 mg/kg i.v. rapid injection, read-out: Internal carotid artery back pressure) was -26%. Also, the change in vivo at 2.5 mg/kg in series [1] (dog, 2,5 mg/kg i.v. rapid injection, read-out: Systemic average arterial pressure) is -50%. For the same compound, in series [1] (dog, 2,5 mg/kg i.v. rapid injection, read-out: Vertebral artery flow), the change in vivo at 2.5 mg/kg worked out at 100%. In series [1] (setting [5]), the “Internal carotid artery back pressure: in time” value stood at 5 min, the Systemic average arterial pressure: in time was found to be 2 min, the “Vertebral artery flow: in time” value turned out to be 5 min and the “Increase of the extraction of cerebral oxygen” value (“Increase” for short) was -50%. Further, the change in vivo at 2.5 mg/kg in series [2] (Canis lupus familiaris, iv, dog, 2,5 mg/kg i.v. slow perfusion, read-out: Average arterial pressure) is -50%. Also, the change in vivo at 2.5 mg/kg in series [2] (Canis lupus familiaris, iv, dog, 2,5 mg/kg i.v. slow perfusion, read-out: Femoral artery flow) turned out to be 100%. Also, in series [2] (setting [6]), the “Average arterial pressure: in time” value turned out to be 2 min and the “Femoral artery flow: in time” value stood at 5 min.

Regarding `COc1cc(/C=C/C(=O)N2CCN(CC(O)COc3cccc(Cl)c3)CC2)cc(OC)c1OC` (stereo not shown) [760 504], the change in vivo at 5 mg/kg in series [2] (setting [7]) was -23%. For the same compound, the change in vivo at 5 mg/kg in series [2] (setting [8]) was 49%. Also, in series [2] (setting [9]), the “Average arterial pressure: in time” value came out at 10 min and the “Femoral artery flow: in time” value was found to be 15 min.

As to `COc1ccc(Cc2nccc3cc(OC)c(OC)cc23)cc1OC` [Papaverine, papaverine, reference compound], in series [1] (read-out: Internal carotid artery back pressure), the change in vivo at 2.5 mg/kg is -45%. Besides, the change in vivo at 2.5 mg/kg in series [1] (read-out: Vertebral artery flow) was 100%. Besides, in series [1] (setting [5]), the “Internal carotid artery back pressure: in time” value is listed as 5 min, the “Vertebral artery flow: in time” value is on record as 6 min and the “Increase” value stood at 0%. Further, the change in vivo at 2 mg/kg in series [2] (Canis lupus familiaris, iv, read-out: Femoral artery flow) worked out at 100%. For the same compound, the “Femoral artery flow: in time” value in series [2] (dog, 2 mg/kg i.v. slow perfusion) came to 1 min.

Take `COc1ccccc1OCC(O)CN1CCN(C(=O)/C=C/c2cc(OC)c(OC)c(OC)c2)CC1` (stereo not shown) [760 392]: in series [3] (2.5 mg/kg i.v. slow perfusion), the “Diminution in consumption of O2: in time” value turned out to be 30 min and the “Diminution in the cardiac effort (IK): in time” value (shortened to “Diminution in the cardiac effort”) came to 30 min. In addition, the inhibition in vivo at 2.5 mg/kg in series [3] (setting [10]) was determined as 31%. Further, the inhibition in vivo at 2.5 mg/kg in series [3] (setting [11]) was determined as 11%. Also, in series [1] (dog, 2 mg/kg i.v. rapid injection, read-out: Internal carotid artery back pressure), the change in vivo at 2 mg/kg is -79%. Moreover, the change in vivo at 2 mg/kg in series [1] (dog, 2 mg/kg i.v. rapid injection, read-out: Systemic average arterial pressure) was -39%. Moreover, the change in vivo at 2 mg/kg in series [1] (dog, 2 mg/kg i.v. rapid injection, read-out: Vertebral artery flow) came out at 186%. Further, in series [1] (setting [12]), the “Internal carotid artery back pressure: in time” value was over 30 min, the Systemic average arterial pressure: in time was found to be 30 min and the “Vertebral artery flow: in time” value was under 30 min. In series [2] (Canis lupus familiaris, iv, dog, 10 mg/kg i.v. slow perfusion, read-out: Average arterial pressure), the change in vivo at 10 mg/kg is -28%. The change in vivo at 10 mg/kg in series [2] (Canis lupus familiaris, iv, dog, 10 mg/kg i.v. slow perfusion, read-out: Femoral artery flow) was 56%. Also, in series [2] (setting [13]), the “Average arterial pressure: in time” value amounted to 38 min and the “Femoral artery flow: in time” value came to 45 min.

As for `C(=C\c1ccccc1)/CN1CCN(C(c2ccccc2)c2ccccc2)CC1` [Cinnarizine, cinnarizine, reference compound], the change in vivo at 5 mg/kg in series [1] (setting [14]) was -25%; in series [1] (setting [15]), 130%; in series [2] (setting [8]) it was 100%. Also, in series [1] (setting [16]), the “Internal carotid artery back pressure: in time” value was 30 min. Further, the “Vertebral artery flow: in time” value in series [1] (setting [16]) is reported as 30 min. Besides, in series [1] (setting [16]), the “Increase” value was found to be 0%. In addition, the “Femoral artery flow: in time” value in series [2] (setting [9]) was determined as 30 min.

With `COc1cc(/C=C/C(=O)N2CCN(CC(O)COc3ccccc3C)CC2)cc(OC)c1OC` (stereo not shown) [760 502], in series [2] (setting [7]), the change in vivo at 5 mg/kg was -22%. The change in vivo at 5 mg/kg in series [2] (setting [8]) was 190%. Also, in series [2] (setting [9]), the “Average arterial pressure: in time” value came out at 15 min and the “Femoral artery flow: in time” value is 35 min.

As to `COc1cc(/C=C/C(=O)N2CCN(CC(O)COc3cccc(OC)c3OC)CC2)cc(OC)c1OC` (stereo not shown) [760 393], the “Diminution in consumption of O2: in time” value in series [3] (2.5 mg/kg i.v. slow perfusion) is recorded as 15 min. The “Diminution in the cardiac effort” value in series [3] (2.5 mg/kg i.v. slow perfusion) is 15 min. Moreover, the inhibition in vivo at 2.5 mg/kg in series [3] (setting [10]) is 47%; in series [3] (setting [11]) it was 5%. Besides, the change in vivo at 5 mg/kg in series [1] (setting [14]) was -62%; in series [1] (setting [17]), -33%; in series [1] (setting [15]), 150%. In series [1] (setting [16]), this compound came in with a Systemic average arterial pressure: in time of 30 min. In addition, the “Vertebral artery flow: in time” value in series [1] (setting [16]) is listed as under 2 min. Besides, in series [4] (read-out: Toxicity: LD50), the median lethal dose (LD50) amounted to 319 mg/kg.

For the compound `COc1cc(/C=C/C(=O)N2CCN(CC(O)COc3cccc(C)c3)CC2)cc(OC)c1OC` (stereo not shown) [760 521], the change in vivo at 5 mg/kg in series [2] (setting [7]) was -19%; in series [2] (setting [8]) it was 34%. For the same compound, the “Average arterial pressure: in time” value in series [2] (setting [9]) was determined as 30 min. Also, the “Femoral artery flow: in time” value in series [2] (setting [9]) worked out at 15 min.

Turning to `COc1cc(/C=C/C(=O)N2CCN(CC(O)COc3ccccc3C(C)=O)CC2)cc(OC)c1OC` (stereo not shown) [760 455], the “Diminution in consumption of O2: in time” value in series [3] (2.5 mg/kg i.v. slow perfusion) stood at 15 min. The “Diminution in the cardiac effort” value in series [3] (2.5 mg/kg i.v. slow perfusion) amounted to 30 min. Also, the inhibition in vivo at 2.5 mg/kg in series [3] (setting [10]) came out at 45%; in series [3] (setting [11]) it was 24%. The change in vivo at 5 mg/kg in series [1] (setting [14]) is -90%; in series [1] (setting [17]), -39%; in series [1] (setting [15]) it was 120%. Besides, the “Internal carotid artery back pressure: in time” value in series [1] (setting [16]) was determined as 20 min. The compound further yielded a Systemic average arterial pressure: in time in series [1] (setting [16]) of 30 min. For the same compound, in series [1] (setting [16]), the “Vertebral artery flow: in time” value amounted to 6 min. In series [4] (255 mg/kg i.v., read-out: Toxicity (Mortality)), the mortality was determined as 50%.

For `C=CCOc1ccccc1OCC(O)CN1CCN(C(=O)/C=C/c2cc(OC)c(OC)c(OC)c2)CC1` (stereo not shown) [760 503], the change in vivo at 5 mg/kg in series [2] (setting [7]) was -6%. Moreover, the change in vivo at 5 mg/kg in series [2] (setting [8]) is 87%. For the same compound, in series [2] (setting [9]), the “Average arterial pressure: in time” value is on record as 15 min and the “Femoral artery flow: in time” value was 15 min.

For `COc1cc(/C=C/C(=O)N2CCN(CC(O)COc3ccc(C#N)cc3)CC2)cc(OC)c1OC` (stereo not shown) [760 501], in series [3] (2.3 mg/kg i.v. slow perfusion), the “Diminution in consumption of O2: in time” value is reported as 45 min and the “Diminution in the cardiac effort” value came out at 15 min. Besides, in series [3] (2.3 mg/kg i.v. slow perfusion, read-out: Diminution in consumption of O2), the inhibition in vivo at 2.3 mg/kg is 75%. Further, the inhibition in vivo at 2.3 mg/kg in series [3] (2.3 mg/kg i.v. slow perfusion, read-out: Diminution in the cardiac effort (IK)) turned out to be 4%. Further, the change in vivo at 5 mg/kg in series [2] (setting [7]) was -22%. Besides, the change in vivo at 5 mg/kg in series [2] (setting [8]) was found to be 61%. For the same compound, in series [2] (setting [9]), the “Average arterial pressure: in time” value came to 35 min and the “Femoral artery flow: in time” value was determined as 23 min.

For `COc1cc(/C=C/C(=O)N2CCN(CC(O)COc3ccc(C)cc3)CC2)cc(OC)c1OC` (stereo not shown) [760 505], the change in vivo at 5 mg/kg in series [1] (setting [14]) is -38%; in series [1] (setting [17]), -11%; in series [1] (setting [15]) it was 113%; in series [2] (setting [7]), -21%; in series [2] (setting [8]), 24%. In series [1] (setting [16]), the “Internal carotid artery back pressure: in time” value is 10 min. The compound also displayed a Systemic average arterial pressure: in time in series [1] (setting [16]) of 20 min. Also, the “Vertebral artery flow: in time” value in series [1] (setting [16]) is given as 10 min. Further, in series [2] (setting [9]), the “Average arterial pressure: in time” value is 23 min. In addition, in series [2] (setting [9]), the “Femoral artery flow: in time” value is given as 15 min.
